Assay: Photocuring / inverted vial test of aqueous adhesive solution
Type: physicochemical
Conditions: aqueous solution with LAP 50.9 mM, 395 nm light
Procedure: The minimum concentration of the monomer and the crosslinker that leads to a solid material after curing is 892.8 mM and 161.8 mM, respectively. The high hydrophilicity of both compounds allows the formation of a highly concentrated aqueous solution. After the photoinitiator (LAP) addition and the application of 395 nm wavelength light, radicals are formed, and a polymeric crosslinked network is created according to the reaction (FIG. 9). The solution solidifies after 10 sec of exposure to the UV light (FIGS. 10A-B). FIG. 10A has a vial (892.8 mM KDOPA-MA and 161.8 mM (KDOPA)2-DMA) and FIG. 10B (297.6 mM KDOPA-MA and 53.9 mM (KDOPA)2-DMA). In both cases, the LAP concentration was constant (50.9 mM) and the UV light was applied for 10 sec. When the concentration of the compounds decreases, the solution remains liquid and becomes cloudier after curing. […] FIG. 11A illustrates 15% crosslinker molar ratio. FIG. 11B illustrates 45% crosslinker molar ratio.
The adhesive was prepared using the formulation of Table 1. An aqueous solution of LAP photoinitiator (15 mg/ml), KDOPA-MA (350 mg/ml) and (KDOPA)2-DMA (145 mg/ml) was prepared by mixing and vortexing for 10 sec. Throughout the text this formulation mentioned KDopa glue. When KDOPA-MA was replaced with KY-MA (the (KDOPA)2-DMA crosslinker remains the same) disclosed embodiments have the KY glue. […]

Row | minimum concentration that leads to a solid material after curing [mM] | Substance
1 | 161.8 | Lys-DOPA dimethacrylate [(KDOPA)2-DMA]
2 | 892.8 | Lys-DOPA methacrylate [KDOPA-MA]

From patent US12691199B2, “Mussel-inspired photoreactive instant glue for environmental and biomedical applications” (KING ABDULLAH UNIVERSITY OF SCIENCE AND TECHNOLOGY, priority 2022, dated 2026)
